Laboratory results reported in publication PMC3914206.

Key:
Format in all cases: binding
Conditions in all cases: Compound Concentration 10 µM
panel of 442 kinases [1] = biological target: T1, panel of 442 kinases (Homo sapiens, UniProt P00533, DEL746-750)
T1 construct: purchased KINOMEscan
Text: (§1) We assessed the selectivity of members of this scaffold using the KINOMEscan methodology across a near comprehensive panel of 442 kinases [[18,27]].

panel of 442 kinases [2] = biological target: T2, panel of 442 kinases (Homo sapiens, UniProt Q05397)
T2 construct: purchased KINOMEscan
Text: as §1

panel of 442 kinases [3] = biological target: T3, panel of 442 kinases (Homo sapiens, UniProt Q8NEV4)
T3 construct: purchased KINOMEscan
Text: as §1

panel of 442 kinases [4] = biological target: T4, panel of 442 kinases (Homo sapiens, UniProt Q9H2X6)
T4 construct: purchased KINOMEscan
Text: as §1

T3 sequence (Q8NEV4 whole entry): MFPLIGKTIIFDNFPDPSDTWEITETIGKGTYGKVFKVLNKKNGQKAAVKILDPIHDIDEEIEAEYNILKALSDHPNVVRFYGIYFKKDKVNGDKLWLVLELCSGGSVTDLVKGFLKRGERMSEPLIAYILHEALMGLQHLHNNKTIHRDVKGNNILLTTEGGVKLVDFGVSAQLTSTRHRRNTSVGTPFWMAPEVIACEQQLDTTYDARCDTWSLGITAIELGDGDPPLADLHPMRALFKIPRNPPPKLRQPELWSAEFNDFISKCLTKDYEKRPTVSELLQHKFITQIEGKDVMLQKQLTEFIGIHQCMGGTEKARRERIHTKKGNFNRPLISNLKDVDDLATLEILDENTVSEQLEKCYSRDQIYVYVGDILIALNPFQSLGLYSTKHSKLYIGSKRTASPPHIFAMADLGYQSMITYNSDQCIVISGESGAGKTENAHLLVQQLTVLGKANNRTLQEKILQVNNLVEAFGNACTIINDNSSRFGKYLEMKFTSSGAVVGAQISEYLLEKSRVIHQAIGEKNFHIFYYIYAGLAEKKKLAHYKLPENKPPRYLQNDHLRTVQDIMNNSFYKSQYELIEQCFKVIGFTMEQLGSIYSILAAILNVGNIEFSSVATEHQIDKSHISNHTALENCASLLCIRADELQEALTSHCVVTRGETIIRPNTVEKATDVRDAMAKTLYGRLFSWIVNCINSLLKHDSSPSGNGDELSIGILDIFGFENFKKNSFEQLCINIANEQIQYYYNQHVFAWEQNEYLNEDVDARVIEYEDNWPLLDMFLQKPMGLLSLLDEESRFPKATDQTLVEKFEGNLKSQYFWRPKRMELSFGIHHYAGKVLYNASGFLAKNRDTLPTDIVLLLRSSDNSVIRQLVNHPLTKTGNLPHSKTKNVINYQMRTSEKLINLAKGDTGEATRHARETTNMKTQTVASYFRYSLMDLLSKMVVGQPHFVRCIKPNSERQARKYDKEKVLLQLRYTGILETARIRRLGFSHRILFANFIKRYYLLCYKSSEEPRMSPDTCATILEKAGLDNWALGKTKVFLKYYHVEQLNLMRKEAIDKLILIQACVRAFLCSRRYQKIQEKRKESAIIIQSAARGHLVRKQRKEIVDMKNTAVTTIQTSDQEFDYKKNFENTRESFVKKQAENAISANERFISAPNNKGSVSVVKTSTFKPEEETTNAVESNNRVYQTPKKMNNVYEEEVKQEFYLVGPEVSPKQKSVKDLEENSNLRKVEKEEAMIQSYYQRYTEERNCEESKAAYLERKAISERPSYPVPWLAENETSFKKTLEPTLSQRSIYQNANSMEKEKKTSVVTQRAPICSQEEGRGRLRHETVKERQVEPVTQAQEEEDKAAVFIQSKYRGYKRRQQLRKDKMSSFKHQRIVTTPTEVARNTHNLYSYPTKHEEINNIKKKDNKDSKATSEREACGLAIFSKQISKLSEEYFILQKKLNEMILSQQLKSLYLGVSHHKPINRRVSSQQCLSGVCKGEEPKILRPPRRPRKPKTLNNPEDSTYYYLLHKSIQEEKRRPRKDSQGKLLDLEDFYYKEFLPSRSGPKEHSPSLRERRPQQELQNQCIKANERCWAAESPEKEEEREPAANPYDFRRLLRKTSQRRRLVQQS
T2 sequence (Q05397 whole entry): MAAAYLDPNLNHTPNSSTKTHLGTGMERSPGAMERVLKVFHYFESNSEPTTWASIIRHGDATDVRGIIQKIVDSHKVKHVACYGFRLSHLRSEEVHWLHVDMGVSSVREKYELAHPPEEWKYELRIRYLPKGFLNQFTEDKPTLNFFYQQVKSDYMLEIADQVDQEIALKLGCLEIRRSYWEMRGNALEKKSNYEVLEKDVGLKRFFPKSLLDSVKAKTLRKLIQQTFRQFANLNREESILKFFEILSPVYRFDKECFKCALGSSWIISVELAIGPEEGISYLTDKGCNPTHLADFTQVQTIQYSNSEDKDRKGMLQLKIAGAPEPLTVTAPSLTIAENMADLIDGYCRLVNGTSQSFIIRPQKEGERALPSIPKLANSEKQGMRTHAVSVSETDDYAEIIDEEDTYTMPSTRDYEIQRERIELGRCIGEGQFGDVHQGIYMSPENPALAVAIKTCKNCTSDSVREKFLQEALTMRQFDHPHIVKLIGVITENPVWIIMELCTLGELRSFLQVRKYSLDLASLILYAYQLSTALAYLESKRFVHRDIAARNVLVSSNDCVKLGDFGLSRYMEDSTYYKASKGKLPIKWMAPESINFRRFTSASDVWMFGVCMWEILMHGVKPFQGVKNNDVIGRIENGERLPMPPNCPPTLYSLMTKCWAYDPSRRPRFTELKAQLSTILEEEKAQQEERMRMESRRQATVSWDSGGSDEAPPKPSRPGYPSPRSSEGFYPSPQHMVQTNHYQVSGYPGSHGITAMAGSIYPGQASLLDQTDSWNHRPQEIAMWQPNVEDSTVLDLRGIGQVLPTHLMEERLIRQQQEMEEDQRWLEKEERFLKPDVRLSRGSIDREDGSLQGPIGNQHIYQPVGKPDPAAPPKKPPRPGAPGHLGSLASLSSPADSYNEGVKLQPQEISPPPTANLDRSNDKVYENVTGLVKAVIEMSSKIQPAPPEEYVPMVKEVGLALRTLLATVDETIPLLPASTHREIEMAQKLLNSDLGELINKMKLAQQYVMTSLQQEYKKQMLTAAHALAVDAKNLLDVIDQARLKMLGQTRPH
T4 sequence (Q9H2X6 whole entry): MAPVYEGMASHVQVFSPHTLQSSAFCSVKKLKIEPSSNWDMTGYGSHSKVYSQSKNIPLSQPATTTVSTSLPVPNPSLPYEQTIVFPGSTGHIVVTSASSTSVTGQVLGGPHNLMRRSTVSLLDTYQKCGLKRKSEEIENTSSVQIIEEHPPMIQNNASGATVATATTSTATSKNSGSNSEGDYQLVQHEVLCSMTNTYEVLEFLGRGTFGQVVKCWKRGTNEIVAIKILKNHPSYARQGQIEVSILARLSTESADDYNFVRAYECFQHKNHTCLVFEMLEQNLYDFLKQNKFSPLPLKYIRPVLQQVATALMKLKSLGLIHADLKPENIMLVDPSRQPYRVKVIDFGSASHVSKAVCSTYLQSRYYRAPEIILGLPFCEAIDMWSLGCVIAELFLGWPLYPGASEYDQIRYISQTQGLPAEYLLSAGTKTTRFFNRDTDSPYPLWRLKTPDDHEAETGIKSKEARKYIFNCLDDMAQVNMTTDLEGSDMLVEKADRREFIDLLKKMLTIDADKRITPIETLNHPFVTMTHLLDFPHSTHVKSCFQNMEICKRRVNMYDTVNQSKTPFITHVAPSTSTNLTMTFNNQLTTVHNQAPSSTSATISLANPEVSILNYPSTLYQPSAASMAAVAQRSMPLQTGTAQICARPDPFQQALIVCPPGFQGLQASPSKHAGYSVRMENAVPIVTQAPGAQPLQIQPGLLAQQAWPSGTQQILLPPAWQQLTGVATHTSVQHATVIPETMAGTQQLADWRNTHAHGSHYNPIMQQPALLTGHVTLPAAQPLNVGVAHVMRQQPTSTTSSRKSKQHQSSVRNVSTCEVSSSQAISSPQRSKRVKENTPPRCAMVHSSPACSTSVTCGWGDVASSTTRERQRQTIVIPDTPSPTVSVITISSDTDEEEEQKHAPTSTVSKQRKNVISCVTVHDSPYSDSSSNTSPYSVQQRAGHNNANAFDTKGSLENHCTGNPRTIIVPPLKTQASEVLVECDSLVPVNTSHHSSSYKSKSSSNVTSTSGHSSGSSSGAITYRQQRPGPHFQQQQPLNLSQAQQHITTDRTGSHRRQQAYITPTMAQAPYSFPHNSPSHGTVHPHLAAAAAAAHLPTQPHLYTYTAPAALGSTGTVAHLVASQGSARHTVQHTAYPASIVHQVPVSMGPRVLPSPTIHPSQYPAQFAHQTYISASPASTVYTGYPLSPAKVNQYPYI
T1 sequence (P00533 with tags, fused parts or gaps DEL746-750): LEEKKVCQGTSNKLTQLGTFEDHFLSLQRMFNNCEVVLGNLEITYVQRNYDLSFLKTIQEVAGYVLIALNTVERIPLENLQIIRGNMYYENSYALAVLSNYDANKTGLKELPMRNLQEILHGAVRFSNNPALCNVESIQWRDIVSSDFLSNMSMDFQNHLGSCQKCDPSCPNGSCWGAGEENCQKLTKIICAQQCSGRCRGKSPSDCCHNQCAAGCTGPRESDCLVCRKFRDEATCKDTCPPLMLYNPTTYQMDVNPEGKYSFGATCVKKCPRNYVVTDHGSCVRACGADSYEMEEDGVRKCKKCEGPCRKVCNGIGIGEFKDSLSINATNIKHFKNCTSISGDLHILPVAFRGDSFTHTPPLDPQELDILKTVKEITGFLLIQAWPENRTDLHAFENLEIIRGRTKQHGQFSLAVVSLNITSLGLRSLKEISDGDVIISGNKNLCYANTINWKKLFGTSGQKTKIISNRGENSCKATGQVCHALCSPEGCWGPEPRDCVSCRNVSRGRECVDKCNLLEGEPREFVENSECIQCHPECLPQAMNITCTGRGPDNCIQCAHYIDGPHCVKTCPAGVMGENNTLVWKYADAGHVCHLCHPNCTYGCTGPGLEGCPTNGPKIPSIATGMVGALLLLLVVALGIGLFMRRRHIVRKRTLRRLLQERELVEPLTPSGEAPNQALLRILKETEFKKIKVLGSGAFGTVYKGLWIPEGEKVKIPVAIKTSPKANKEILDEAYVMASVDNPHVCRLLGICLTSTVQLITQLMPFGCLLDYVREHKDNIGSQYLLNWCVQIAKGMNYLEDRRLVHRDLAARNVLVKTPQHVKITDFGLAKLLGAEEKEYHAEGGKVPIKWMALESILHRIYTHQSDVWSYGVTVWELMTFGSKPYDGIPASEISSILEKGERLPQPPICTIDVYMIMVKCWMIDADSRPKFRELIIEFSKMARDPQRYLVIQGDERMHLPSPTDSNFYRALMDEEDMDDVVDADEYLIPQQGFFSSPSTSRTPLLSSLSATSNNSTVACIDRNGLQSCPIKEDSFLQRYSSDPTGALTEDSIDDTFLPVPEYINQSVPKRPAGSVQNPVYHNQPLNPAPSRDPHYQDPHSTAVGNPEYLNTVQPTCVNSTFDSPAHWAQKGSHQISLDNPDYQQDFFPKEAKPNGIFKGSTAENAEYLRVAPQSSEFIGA

SMILES | KINOMEscan: EGFR(E746-A750del) (panel of 442 kinases [1]) | KINOMEscan: FAK (panel of 442 kinases [2]) | KINOMEscan: MYO3A (panel of 442 kinases [3]) | KINOMEscan: HIPK2 (panel of 442 kinases [4])
COc1cc(C(=O)N2CCC(N3CCN(C)CC3)CC2)ccc1Nc1ncc2c(n1)N(C)c1ccccc1C(=O)N2C [15 (LRRK2-IN-1)] | 72 | 34 | 94 | 88
COc1cc(C(=O)N2CCC(N3CCN(C)CC3)CC2)ccc1Nc1ncc2c(n1)N1CCc3cccc(c31)C(=O)N2C [Compound 24] |  |  |  | 88
COc1cc(C(=O)N2CCC(N3CCN(C)CC3)CC2)ccc1Nc1ncc2c(n1)N(C1CCCC1)c1ccccc1C(=O)N2C [Compound 25, 11-cyclopentyl-2-((2-methoxy-4-(4-(4-methylpiperazin-1-yl)piperidine-1-carbonyl)phenyl)amino)-5-methyl-5H-benzo[e]pyrimido[5,4-b][1,4]diazepin-6(11H)-one] | 80 | 19 | 86 | 100
CCOc1cc(C(=O)N2CCC(N3CCN(C)CC3)CC2)ccc1Nc1ncc2c(n1)N(C1CCCC1)c1ccccc1C(=O)N2C [Compound 26] | 100 | 57 | 100 | 100
